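Exposure lasted 48 hours, with cells grown in 96-well plates and compounds tested at five concentrations. TGI is the concentration that stops growth completely.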

Some test systems named below: CAKI-1 renal; CCRF-CEM leukemia; HCC-2998 colon; HCT-15 colon; HOP-92 NSCLC; HT29 colon; IGROV1 ovarian; MCF7 breast; MOLT-4 leukemia; OVCAR-3 ovarian; OVCAR-4 ovarian; RPMI-8226 leukemia; SF-268 CNS; SK-MEL-2 melanoma; SK-MEL-5 melanoma; U251 CNS; UO-31 renal; DU-145 prostate; MDA-MB-231 breast.
Common to all, as to experiment: inhibition of tumour cell growth, NCI panel, 48 h

In the case of `O=C1c2ccccc2C(O)(C(=O)O)C1(O)CC=C(Cl)Cl` (centres undefined), the TGI is greater than 125 µM in the test on CAKI-1 renal; greater than 125 µM in the test on CCRF-CEM leukemia; greater than 125 µM in the test with HCC-2998 colon; greater than 125 µM in the test with HCT-15 colon; greater than 117 µM in the test with HOP-92 NSCLC; greater than 125 µM in the test on HT29 colon. Moreover, the TGI in the test on IGROV1 ovarian, in the test with MCF7 breast, in the test with MOLT-4 leukemia, in the test with OVCAR-3 ovarian, in the test on OVCAR-4 ovarian and in the test on RPMI-8226 leukemia was greater than 125 µM throughout. The TGI with SF-268 CNS, with SK-MEL-2 melanoma, with SK-MEL-5 melanoma, with U251 CNS and in the test on UO-31 renal was greater than 125 µM throughout.

For `CCOC(=O)C(C(=O)OCC)=C1NC2(c3ccccc3Nc3ccc(C)cc32)C(C#N)S1` (centres undefined), the TGI in the test on CAKI-1 renal was 72 µM; in the test on CCRF-CEM leukemia it was greater than 100 µM; in the test on DU-145 prostate it was 43.8 µM; with HCC-2998 colon, 11.3 µM; with HCT-15 colon, 29.5 µM; in the test with HOP-92 NSCLC it was 14.2 µM. In addition, the TGI in the test with HT29 colon was 15.1 µM; in the test with IGROV1 ovarian, 27.2 µM; with MCF7 breast, 11.9 µM; in the test on MOLT-4 leukemia it was 5.76 µM; in the test on OVCAR-3 ovarian, 8.44 µM; in the test on OVCAR-4 ovarian, 40.7 µM. Further, the TGI in the test on RPMI-8226 leukemia is 4.63 µM; in the test on SF-268 CNS, 36.2 µM; in the test on SK-MEL-2 melanoma it was 22.1 µM; with SK-MEL-5 melanoma it was 20 µM; in the test on U251 CNS, 17.9 µM; with UO-31 renal, 17.8 µM.

Regarding `Ic1ncnc2c1ncn2C1CCCO1` (centres undefined), the TGI in the test with CAKI-1 renal, in the test with CCRF-CEM leukemia, with HCC-2998 colon, in the test with HCT-15 colon, with HOP-92 NSCLC and with HT29 colon was greater than 100 µM throughout. The TGI with IGROV1 ovarian, in the test on MOLT-4 leukemia, in the test on OVCAR-3 ovarian, in the test on OVCAR-4 ovarian, in the test with RPMI-8226 leukemia and with SF-268 CNS was greater than 100 µM each time. The TGI in the test with SK-MEL-2 melanoma, in the test on SK-MEL-5 melanoma, in the test with U251 CNS and in the test with UO-31 renal was greater than 100 µM throughout.

In the case of `COc1cc2c[n+](C)c3c4cc5c(cc4ccc3c2cc1OC)OCO5`, the TGI was 19.5 µM with CCRF-CEM leukemia; 9.19 µM with DU-145 prostate; 7.52 µM with HCC-2998 colon; greater than 100 µM in the test on HCT-15 colon; 6.39 µM in the test with HOP-92 NSCLC; 4.6 µM in the test on HT29 colon. For the same molecule, the TGI was 3.9 µM with IGROV1 ovarian; greater than 100 µM in the test on MDA-MB-231 breast; 13.5 µM with MOLT-4 leukemia; 9.39 µM with OVCAR-3 ovarian; greater than 52.4 µM with OVCAR-4 ovarian; 23.5 µM in the test with RPMI-8226 leukemia. The TGI in the test on SF-268 CNS was 39.4 µM; in the test on SK-MEL-2 melanoma, 6.97 µM; with SK-MEL-5 melanoma, 23.2 µM; in the test on U251 CNS it was 2.13 µM; in the test with UO-31 renal, greater than 100 µM.

Consider `Cc1csc2nc3c(cnn3C)c(=S)n12`, for which the TGI with CAKI-1 renal, in the test on CCRF-CEM leukemia, with HCC-2998 colon, in the test with HCT-15 colon, in the test on HT29 colon and in the test with IGROV1 ovarian was greater than 100 µM each time. Besides, the TGI in the test with MCF7 breast is greater than 100 µM; in the test with MDA-MB-231 breast, greater than 10 µM; in the test on MOLT-4 leukemia, greater than 100 µM; in the test on OVCAR-3 ovarian it was greater than 100 µM; in the test with OVCAR-4 ovarian, greater than 100 µM; with RPMI-8226 leukemia, greater than 100 µM. In addition, the TGI in the test with SF-268 CNS, in the test on SK-MEL-2 melanoma, in the test with SK-MEL-5 melanoma, in the test on U251 CNS and in the test with UO-31 renal was greater than 100 µM throughout.

As for `O=c1c(C=Nc2ccccc2Cl)c(O)n(-c2ccccc2)c(=O)n1-c1ccccc1`, the TGI in the test with CAKI-1 renal, in the test with CCRF-CEM leukemia, in the test with HCC-2998 colon, in the test on HCT-15 colon, in the test with HOP-92 NSCLC and in the test with HT29 colon was greater than 100 µM in each case. Besides, the TGI with IGROV1 ovarian, in the test on MCF7 breast, in the test with MDA-MB-231 breast, in the test with MOLT-4 leukemia, in the test with OVCAR-3 ovarian and in the test on OVCAR-4 ovarian was greater than 100 µM each time. The TGI with RPMI-8226 leukemia, in the test on SF-268 CNS, with SK-MEL-2 melanoma, in the test on SK-MEL-5 melanoma, in the test on U251 CNS and in the test with UO-31 renal was greater than 100 µM throughout.

As for `ClC1(Cl)C(c2ccccc2)C1c1ccccc1` (centres undefined), the TGI in the test with CAKI-1 renal was 75.9 µM; in the test with DU-145 prostate it was greater than 100 µM; in the test with HCC-2998 colon it was 30 µM; in the test with HCT-15 colon, greater than 100 µM; in the test on MCF7 breast it was greater than 100 µM; in the test on MDA-MB-231 breast it was greater than 100 µM. The TGI in the test with MOLT-4 leukemia was greater than 100 µM; with OVCAR-3 ovarian, 87.8 µM; with OVCAR-4 ovarian, greater than 100 µM; in the test on RPMI-8226 leukemia, 79.8 µM; with SF-268 CNS, greater than 100 µM; with SK-MEL-2 melanoma it was 40.2 µM. Further, the TGI with U251 CNS and in the test on UO-31 renal was greater than 100 µM throughout.

Regarding `COc1nc(C)nc2sc3c(c12)CCCC3`, the TGI in the test on CAKI-1 renal, in the test on DU-145 prostate, in the test on HCC-2998 colon, in the test with HCT-15 colon, with HT29 colon and in the test with IGROV1 ovarian was greater than 100 µM throughout. Besides, the TGI in the test with MCF7 breast, with MDA-MB-231 breast, in the test with MOLT-4 leukemia, in the test on OVCAR-3 ovarian, in the test on OVCAR-4 ovarian and in the test with RPMI-8226 leukemia was greater than 100 µM each time. For the same molecule, the TGI in the test on SF-268 CNS, with SK-MEL-2 melanoma, with SK-MEL-5 melanoma, in the test on U251 CNS and in the test on UO-31 renal was greater than 100 µM throughout.

These data come from PubChem BioAssay (NCI).
